One assay addresses FGFR1 (Homo sapiens (Human), UniProt P11362). Put plainly: In vitro biochemical kinase assay (Caliper Assay), FGFR1. The following applies: enzyme 0.25 nM, ATP 382 μM, 20 minutes; read-out: Enzymatic activity IC50(nM) FGFR1. The protocol:
(§1) I. In Vitro Biochemical Kinase Assay of FGFR 1˜3
(§2) Caliper Assay was used in the present invention to determine the inhibitory activities of the compounds against FGFR1, FGFR2, and FGFR3. The specific experimental procedure was as follows: • 1. The kinase reaction in the present invention was carried out in 384-well plates, the kinase(Carna) at a certain concentration and ATP at a certain concentration and 1 μM of peptide FAM-P22 (GL Biochem, Cat. No. 112393)) was incubated to react for a certain time at 28° C. in a reaction system consisting of 50 mM HEPES, […], 0.0015% Brij-35 and basic kinase buffer; for FGFR1, the enzyme concentration was 0.25 nM and ATP concentration was 382 μM and the reaction time was 20 minutes; for FGFR2, the enzyme concentration was 2.5 nM, ATP concentration was 1 μM, and the reaction time was 40 minutes; for FGFR3, the enzyme concentration was 8 nM, ATP concentration was 4.7 μM, and the reaction time was 30 minutes: • 2. The reaction was terminated with a stop solution (100 mM HEPES, pH 7.5, 0.2% Caliper coating, reagent, 50 mM EDTA and 0.015% Brij35); • 3. The plate with the terminated kinase reaction was transferred to the Caliper workstation to read the data; • 4. the phosphorylated and unphosphorylated peptides were separated by the Caliper microfluid migration shift technique, and the analyte was transferred by a constant buffer flow through the chip, the migration of the substrate peptide was monitored by the labeled fluorescent signal, and the kinase activity was calculated by the amount of the phosphate-based peptide formed. • 5. IC50 was determined by non-linear regression analysis of percent inhibition at different concentration level of the compound.

Another assay has as its target FGFR2 (Homo sapiens (Human), UniProt P21802). The assay can be described thus: In vitro biochemical kinase assay (Caliper Assay), FGFR2. Conditions: enzyme 2.5 nM, ATP 1 μM, 40 minutes; read-out: Enzymatic activity IC50(nM) FGFR2. The procedure:
as §1, §2

Assay [1] relates to Snu-16 gastric cancer cells (FGFR2 gene amplification). The assay can be described thus: Cell proliferation assay (Cell Titer Glo), Snu-16. The assay is classed as cell-based. The following applies: Snu-16 cells, 3 days, CTG, read-out: Cellular IC50 (nM) Sun16. The procedure: (§3) II. Cell Proliferation Assay (Cell Titer Glo(CTG) Assay)
(§4) The FGFR signal pathway dependent inhibitory effect of the compound in the present invention on cell proliferation was assessed by survival test using CTG reagent (Promega, 4G7573). Cell lines representative of a variety of tumor types, including H1581 lung cancer cells (FGFR1 gene amplification), Snu-16 gastric cancer cells (FGFR2 gene amplification), and RT112 bladder carcinoma cells (FGFR3-TACC3 fusion) from Nanjing Cobioer Biosciences, were selected for the assay. The specific experimental procedure was as follows: • 1. 90 μL of cells were seeded into a 96-well plate processed with TCM (Costar 43904), and incubated overnight at 37° C. in a 5% CO2 incubator; afterwards, 10 μL of the culture medium containing the compound at 10 fold of its final concentration was added; • 2. The dose-dependent effect was evaluated by a serial dilution of the test compound, starting from 10 μM or a lower concentration. • 3. The cells were incubated at 37° C. under 5% C02 for 3 days, then added 50 μL CTG, and read the data with Envision (Pelkin Elmer) to quantify the ATP level in the cells. The ATP levels in cells with treatment of inhibitor at a variety of concentrations were compared with those in cells of the control group (in which DMSO was added into the medium) to evaluate the compound percent inhibition of cell proliferation/survival. • 4. The compound half growth inhibitory concentration (IC50) was determined in Graphpad Prism by 4-parameter curve fitting.
For orientation: Cellular ATP, detected with luciferase, serves as a proxy for viable cell number.

For assay [2], the system named is H1581 lung cancer cells (FGFR1 gene amplification). The assay can be described thus: Cell proliferation assay (Cell Titer Glo), H1581. The assay is classed as cell-based. Conditions: 3 days, CTG, read-out: Cellular IC50 (nM) H1581. The protocol: as §3, §4
Assay [3] has as its system RT112 bladder carcinoma cells (FGFR3-TACC3 fusion). Put plainly: Cell proliferation assay (Cell Titer Glo), RT112. The assay is classed as cell-based. The following applies: Homo sapiens, RT-112, 72 h, 3 days, CTG, numeric values, read-out: Cellular IC50 (nM) RT112. The protocol:
as §3, §4

Structures are written as SMILES. Read-outs that look alike come from different tables or passages of the source.

Broadly, the IC50 is the concentration needed to halve the response being measured.

Chain of FGFR2 (P21802 22-821): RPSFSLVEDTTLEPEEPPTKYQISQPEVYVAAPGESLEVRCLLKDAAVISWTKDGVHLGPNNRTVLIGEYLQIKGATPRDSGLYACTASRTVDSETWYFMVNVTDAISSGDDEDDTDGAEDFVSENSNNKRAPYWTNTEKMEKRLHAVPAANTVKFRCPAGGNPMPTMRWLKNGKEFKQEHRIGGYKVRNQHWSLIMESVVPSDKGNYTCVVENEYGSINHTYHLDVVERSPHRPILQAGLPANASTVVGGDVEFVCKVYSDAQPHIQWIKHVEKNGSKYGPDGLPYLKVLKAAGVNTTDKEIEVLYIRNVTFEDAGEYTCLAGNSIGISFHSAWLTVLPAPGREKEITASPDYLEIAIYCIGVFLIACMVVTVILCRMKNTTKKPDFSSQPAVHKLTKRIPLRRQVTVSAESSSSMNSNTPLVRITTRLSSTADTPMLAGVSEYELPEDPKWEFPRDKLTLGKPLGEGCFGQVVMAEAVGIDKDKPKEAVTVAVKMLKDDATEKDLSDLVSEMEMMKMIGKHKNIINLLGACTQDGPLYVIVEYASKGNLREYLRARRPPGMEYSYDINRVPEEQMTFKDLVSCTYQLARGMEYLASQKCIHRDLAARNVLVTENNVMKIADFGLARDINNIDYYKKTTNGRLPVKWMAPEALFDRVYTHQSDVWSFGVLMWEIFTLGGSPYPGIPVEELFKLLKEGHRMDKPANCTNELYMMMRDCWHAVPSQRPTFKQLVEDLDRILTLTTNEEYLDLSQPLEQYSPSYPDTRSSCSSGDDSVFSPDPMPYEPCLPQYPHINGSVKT
Chain of FGFR1 (P11362 22-822): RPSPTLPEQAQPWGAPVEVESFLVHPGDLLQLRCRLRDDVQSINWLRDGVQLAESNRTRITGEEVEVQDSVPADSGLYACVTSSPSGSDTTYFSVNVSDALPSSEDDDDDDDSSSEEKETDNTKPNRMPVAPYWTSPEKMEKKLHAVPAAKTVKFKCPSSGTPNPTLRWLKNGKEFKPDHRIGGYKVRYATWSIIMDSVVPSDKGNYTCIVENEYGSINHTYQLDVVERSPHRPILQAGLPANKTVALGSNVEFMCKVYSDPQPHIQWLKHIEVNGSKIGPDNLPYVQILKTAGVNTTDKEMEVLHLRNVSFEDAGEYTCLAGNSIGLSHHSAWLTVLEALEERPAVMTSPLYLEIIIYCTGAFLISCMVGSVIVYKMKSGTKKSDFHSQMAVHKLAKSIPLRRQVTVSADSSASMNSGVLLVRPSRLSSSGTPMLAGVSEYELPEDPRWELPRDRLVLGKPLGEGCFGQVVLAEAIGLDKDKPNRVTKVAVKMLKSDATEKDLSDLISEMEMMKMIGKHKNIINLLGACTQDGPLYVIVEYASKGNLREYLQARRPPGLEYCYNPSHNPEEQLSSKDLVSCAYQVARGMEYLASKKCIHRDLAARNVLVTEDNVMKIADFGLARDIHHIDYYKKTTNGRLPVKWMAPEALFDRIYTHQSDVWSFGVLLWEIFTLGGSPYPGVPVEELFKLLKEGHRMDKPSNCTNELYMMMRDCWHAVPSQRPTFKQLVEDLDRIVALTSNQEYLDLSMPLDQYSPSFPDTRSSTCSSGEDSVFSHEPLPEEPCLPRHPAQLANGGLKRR

Consider `COc1cc(OC)c(Cl)c(-c2cc3cnc(-c4cnn(C)c4)cc3n(C(C)C)c2=O)c1Cl` [Example 3, 3-(2,6-dichloro-3,5-dimethoxyphenyl)-1-isopropyl-7-(1-methyl-1H-pyrazol-4-yl)-1,6-naphthyridin-2(1H)-one], for which the IC50 is 5 to 10 nM at FGFR1 and at most 5 nM on FGFR2.
As to `COc1cc(OC)c(Cl)c(-c2cc3cnc(-c4cnn(C)c4)cc3n(CC3CC3)c2=O)c1Cl` [Example 4, 1-(cyclopropylmethyl) 3-(2,6-dichloro-3,5-dimethoxyphenyl)-7-(1-methyl-1H-pyrazol-4-yl)-1,6-naphthyridin-2(1H)-one], the IC50 is 10 to 50 nM on FGFR1; at most 5 nM at FGFR2; 50 to 500 nM in assay [1] (Homo sapiens, SNU-16, 72 h); 50 to 500 nM in assay [2] (Homo sapiens, NCI-H1581, 72 h).
In the case of `COc1cc(OC)c(Cl)c(-c2cc3cnc(-c4cnn(C)c4)cc3n(CCN3CCOCC3)c2=O)c1Cl` [Example 5, 3-(2,6-dichloro-3,5-dimethoxyphenyl)-7-(1-methyl-1H-pyrazol-4-yl)-1-(2-morpholinoethyl)-1,6-naphthyridin-2(1H)-one], the IC50 on FGFR1 is 50 to 500 nM; on FGFR2 it was 10 to 50 nM; in assay [1] (Homo sapiens, SNU-16, 72 h), 10 to 50 nM; in assay [2] (Homo sapiens, NCI-H1581, 72 h), 50 to 500 nM.
Take `COc1cc(OC)c(Cl)c(-c2cc3cnc(-c4cnn(C)c4)cc3n(C3CCOC3)c2=O)c1Cl` (stereo not drawn) [Example 7, 3-(2,6-dichloro-3,5-dimethoxyphenyl)-7-(1-methyl-1H-pyrazol-4-yl)-1-(tetrahydrofuran-3-yl)-1,6-naphthyridin-2(1H)-one]: the IC50 at FGFR1 is at most 5 nM; on FGFR2, at most 5 nM; in assay [1] (Homo sapiens, SNU-16, 72 h), 5 to 10 nM; in assay [2] (Homo sapiens, NCI-H1581, 72 h) it was 10 to 50 nM.
`CCn1c(=O)c(-c2c(Cl)c(OC)cc(OC)c2Cl)cc2cnc(-c3cn(C)nc3C)cc21` [Example 9, 3-(2,6-dichloro-3,5-dimethoxyphenyl)-7-(1,3-dimethyl-1H-pyrazol-4-yl)-1-ethyl-1,6-naphthyridin-2(1H)-one]: the half-inhibitory concentration (IC50) is 10 to 50 nM on FGFR1 and at most 5 nM at FGFR2.
Turning to `CCn1c(=O)c(-c2c(Cl)c(OC)cc(OC)c2Cl)cc2cnc(-c3cnn(C4CN(S(C)(=O)=O)C4)c3)cc21` [Example 11, 3-(2,6-dichloro-3,5-dimethoxyphenyl)-1-ethyl-7-(1-(1-(methylsulfonyl)azetidin-3-yl)-1H-pyrazol-4-yl)-1,6-naphthyridin-2(1H)-one], the IC50 at FGFR1 was 10 to 50 nM; on FGFR2, at most 5 nM; in assay [1] (Homo sapiens, SNU-16, 72 h) it was 10 to 50 nM; in assay [2] (Homo sapiens, NCI-H1581, 72 h), 50 to 500 nM.
Take `CCn1c(=O)c(-c2cc(OC)cc(OC)c2Cl)cc2cnc(-c3cnn(C)c3)cc21` [Example 13, 3-(2-chloro-3,5-dimethoxyphenyl)-1-ethyl-7-(1-methyl-1H-pyrazol-4-yl)-1,6-naphthyridin-2(1H)-one]: the concentration for half-maximal inhibition (IC50) on FGFR1 was 50 to 500 nM; at FGFR2, 5 to 10 nM.
`COc1cc(OC)c(Cl)c(-c2cc3cnc(-c4cnn(CCN5CCOCC5)c4)cc3n(C3CCOC3)c2=O)c1Cl` (stereo not drawn) [Example 18, 3-(2,6-dichloro-3,5-dimethoxyphenyl)-7-(1-(2-morpholinoethyl)-1H-pyrazol-4-yl)-1-(tetrahydrofuran-3-yl)-1,6-naphthyridin-2(1H)-one]: the IC50 in assay [1] (Homo sapiens, SNU-16, 72 h, numeric values) is 6 nM; in assay [2] (Homo sapiens, NCI-H1581, 72 h) it was 50 to 500 nM; in assay [3], 4.1 nM.
Turning to `COc1cc(OC)c(Cl)c(-c2cc3cnc(-c4cnn(C)c4)cc3n([C@H]3CCOC3)c2=O)c1Cl` [Example 22, (S)-3-(2,6-dichloro-3,5-dimethoxyphenyl)-7-(1-methyl-1H-pyrazol-4-yl)-1-(tetrahydrofuran-3-yl)-1,6-naphthyridin-2(1H)-one], the half-inhibitory concentration (IC50) at FGFR1 is at most 5 nM; on FGFR2, at most 5 nM; in assay [1], at most 5 nM; in assay [2], 10 to 50 nM.
`CCn1c(=O)c(-c2c(F)c(OC)cc(OC)c2F)cc2cnc(-c3cnn(C)c3)cc21` [Example 25, 3-(2,6-difluoro-3,5-dimethoxyphenyl)-1-ethyl-7-(1-methyl-1H-pyrazol-4-yl)-1,6-naphthyridin-2(1H)-one]: the IC50 is at most 5 nM at FGFR1; at most 5 nM at FGFR2; 50 to 500 nM in assay [1] (Homo sapiens, SNU-16, 72 h); 50 to 500 nM in assay [2] (Homo sapiens, NCI-H1581, 72 h).
In the case of `CCn1c(=O)c(-c2c(F)c(OC)cc(OC)c2F)cc2cnc(-c3cnn(CCN4CCOCC4)c3)cc21` [Example 29, 3-(2,6-difluoro-3,5-dimethoxyphenyl)-1-ethyl-7-(1-(2-morpholinoethyl)-1H-pyrazol-4-yl)-1,6-naphthyridin-2(1H)-one], the IC50 was 5 to 10 nM on FGFR1; at most 5 nM on FGFR2; 10 to 50 nM in assay [1] (Homo sapiens, SNU-16, 72 h); 50 to 500 nM in assay [2] (Homo sapiens, NCI-H1581, 72 h).
On the same counts, the results for `COc1cc(OC)c(F)c(-c2cc3cnc(-c4cnn(CCN5CCOCC5)c4)cc3n(C(C)C)c2=O)c1F` [Example 30, 3-(2,6-difluoro-3,5-dimethoxyphenyl)-1-isopropyl-7-(1-(2-morpholinoethyl)-1H-pyrazol-4-yl)-1,6-naphthyridin-2(1H)-one] are at most 5 nM, at most 5 nM, at most 5 nM and 10 to 50 nM.
The matching figures for `COc1cc(OC)c(F)c(-c2cc3cnc(-c4cnn(C)c4)cc3n(C3CCCC3)c2=O)c1F` [Example 33, 1-cyclopentyl-3-(2,6-difluoro-3,5-dimethoxyphenyl)-7-(1-methyl-1H-pyrazol-4-yl)-1,6-naphthyridin-2(1H)-one]: at most 5 nM, at most 5 nM, at most 5 nM and 10 to 50 nM.
On the same counts, the results for `COc1cc(OC)c(F)c(-c2cc3cnc(-c4ccc(C(C)(C)C#N)nc4)cc3n(C3CCOC3)c2=O)c1F` (stereo not drawn) [Example 40, 2-(5-(3-(2,6-difluoro-3,5-dimethoxyphenyl)-2-oxo-1-(tetrahydrofuran-3-yl)-1,2-dihydro-1,6-naphthyridin-7-yl)pyridin-2-yl)-2-methylpropanenitrile] are 5 to 10 nM, at most 5 nM, 5 to 10 nM and 50 to 500 nM.
As for `CCn1c(=O)c(-c2c(Cl)c(OC)cc(OC)c2Cl)cc2cnc(-c3cn(C4CCN(C)C4)nc3C)cc21` (stereo not drawn) [Example 46, 3-(2,6-dichloro-3,5-dimethoxyphenyl)-1-ethyl-7-(3-methyl-1-(1-methylpyrrolidin-3-yl)-1H-pyrazol-4-yl)-1,6-naphthyridin-2(1H)-one], the IC50 at FGFR1 is 10 to 50 nM; at FGFR2, at most 5 nM; in assay [1] (Homo sapiens, SNU-16, 72 h), 10 to 50 nM; in assay [2] (Homo sapiens, NCI-H1581, 72 h), 50 to 500 nM.
For `COc1cc(OC)c(Cl)c(-c2cc3cnc(-c4cnn(CCN(C)C)c4)cc3n(C3CCOC3)c2=O)c1Cl` (stereo not drawn) [Example 48, 3-(2,6-dichloro-3,5-dimethoxyphenyl)-7-(1-(2-(dimethylamino)ethyl)-1H-pyrazol-4-yl)-1-(tetrahydrofuran-3-yl)-1,6-naphthyridin-2(1H)-one], the IC50 at FGFR1 is 10 to 50 nM; at FGFR2, at most 5 nM; in assay [1] (Homo sapiens, SNU-16, 72 h), 5 to 10 nM; in assay [2] (Homo sapiens, NCI-H1581, 72 h) it was 50 to 500 nM.
